Source: publication PMC12374861, “Synthetic Peptides Suppress Nervous Necrosis Virus Absorption and Improve Survival Rates in European Sea Bass” (Marine Biotechnology (New York, N.y.), 2025)
Ends that are not written are not given here.

Columns and labels:
SJNNV = type: cell-based, striped jack nervous necrosis virus (strain SJNag97); conditions: virus (MOI 0.01) incubated with 500 μg/mL peptide for 15 min at 25 °C, titrated in E-11 cells; control virus + PBS; representative of two independent assays; Fig. 2B
Description: Parental RGNNV (strain It/411/96), SJNNV (strain SJNag97), and reassortant isolates (RGNNV/SJNNV, 367.2.2005; SJNNV/RGNNV, 389/I96) were used. Viruses were propagated in E − 11 cells cultured in L-15 Leibovitz medium (BioWest) supplemented with 5% FBS, 2 mM L-glutamine, and 100 IU/mL penicillin/streptomycin (Thermo Fisher Scientific) at 25 °C. Infected monolayers were incubated at 25 °C until extensive cytopathic effect (CPE) developed. Supernatants were then harvested, centrifuged, and titrated in triplicate using the end-point dilution method, expressed as TCID₅₀/mL (Reed and Müench [1938]).
For in vitro antiviral assays, viral cultures (MOI 0.01) from parental and reassortant strains were incubated with peptides (single or combined) using a non-lethal concentration previously tested (500 μg/mL; León et al. [2020]), for 15 min at 25 °C with gentle agitation. Controls were virus samples incubated with PBS (100% viral activity). Treated samples were titrated as previously. After medium removal, cells were exposed to ten-fold viral dilutions in 2% FBS. CPE was monitored daily for 10 days, and viral titres were calculated as TCID₅₀/mL (Reed and Müench [1938]) and expressed as viral titre or percent inhibition relative to controls.
Fig. 2 Designed peptides, single or combined, reduce the NNV absorption in vitro. NNV parental or reassortant genotypes were incubated with 500 μg/mL of the synthetic peptides for 15 min. Then, the viruses were titrated in the E − 11 cell line. Control samples consisted on virus incubated with the same amount of phosphate buffer saline. (A) Viral titer (TCID50/mL) and (B) % of virus inhibition with respect to the controls are represented. Data are representative of two independent assays. […] Each bar was matched to a substance by its colour and by the order of the legend.

E-11 cells = experiment: MTT cytotoxicity test on E-11 cells; type: cell-based; conditions: 24 h at 25 °C, mean of n = 3, control = 100.0
Description: Synthetic peptides cytotoxicity on E − 11 cells was assessed using the MTT (Sigma) test with serial peptide dilutions (1000–4 µg/mL in L − 15 medium; n = 3; 24 h at 25 °C) as elsewhere (Cervera et al. [2024c]). Absorbance was measured at 570 nm (BMG Labtech); blanks lacked cells. Cell viability was calculated as the OD ratio of treated to untreated cells × 100, normalized at 690 nm.
Supplementary data S4: Cell viability (%) of E-11 cells after incubation with the synthetic peptides for 24 h. Data represent the mean ± SEM (n=3).

RGNNV = RGNNV in vivo bath challenge of European sea bass with peptide injection after infection; design: species or system European sea bass (Dicentrarchus labrax)
Description: RGNNV In vivo Challenge of European Sea Bass
A total of 375 sea bass were randomly assigned to eight experimental groups (in duplicate) and acclimated for 15 days. Seven groups were infected by immersion (10 L; 3.16 × 10^4 TCID₅₀ RGNNV/mL; 2 h), while a mock-infected control received conditioned medium. […] Combinations were selected according to the results obtained in the competitive in vitro assay against RGNNV (see below). Disease signs and mortalities were monitored daily for 23 days post-infection (dpi) using a four-rank scale (Valero et al. [2021a]). Fish (n = 6/group/time-point) were sampled at 2 and 23 dpi, euthanized with clove oil, bled, and weighed. Brain, NNV target tissue, and head-kidney, major hematopoietic tissue in fish, were dissected, frozen in TRIzol (Life Technologies), and stored at − 80 °C.
For viral load analysis, total RNA was extracted from sea bass brain and head-kidney using TRIzol (Life Technologies) and from E − 11 cells using the GenJET RNA Purification Kit (Thermo Fisher Scientific), following manufacturer protocols. One microgram of RNA was DNAse I-treated (1 U/µL; Thermo Scientific), and cDNA was synthesized using Superscript IV Reverse Transcriptase (Invitrogen). qPCR was performed on a QuantStudio 5 Flex (Applied Biosystems) to quantify cp, rdrp and mx genes using PowerUp SYBR Green reagents (Applied Biosystems). The protocol included a 95 °C hold, then 40 cycles (95 °C; 15 s) and 60 °C for 1 min. Relative expression was calculated using the 2^⁻ΔCt method (Livak and Schmittgen [2001]), with ef1a as the endogenous control. Primers (Supplementary Data S2) were validated by melting curve analysis and negative controls.
Fish mortality was analysed using Kaplan–Meier survival curves with log-rank (Mantel–Cox) tests for significance. Relative gene expression was evaluated by one-way ANOVA (p ≤ 0.05) followed by Tukey’s test. Viral kinetics were compared between P4-treated and untreated groups using Student’s t-test (p ≤ 0.05) at specific time points. All analyses were performed with IBM SPSS Statistics 20.
Fig. 4 Therapeutic administration of synthetic peptides improves survival and symptomatology in […] (RGNNV)-infected European sea bass juveniles. […] A mock-infected group was treated twice with only PBS. (A) Kaplan–Meier survival curves; (B) Heat-map representing the cumulated number of fish showing clinical signs of VER disease attending to their severity: (1) changes of the color of the skin, slower rhythm of swimming and/or slower reaction to external stimuli as feeding; (2) alterations in the swimming balance and/or erratic swimming spasms; (3) continuous erratic swimming; and (4) complete incapacity to keep balance, swim and/or move without external stimuli. VER, viral encephalopathy and retinopathy
Fig. 5 Therapeutic administration of synthetic peptides decreased viral loads in the brain without additional mx gene regulation in the sea bass juveniles head-kidney infected with red-spotted grouper nervous necrosis virus (RGNNV). […] A mock-infected group was treated twice with only PBS. (A–C) Transcription levels of RGNNV cp (A) and rdrp (B) genes in the brain and (C) mx gene in the head-kidney. Data represent the relative gene expression mean ± SEM (n = 6). Different letters indicate significant differences among groups according to the ANOVA (p < 0.05)

| Substance | % of virus inhibition with respect to the controls, SJNNV (SJNNV) | Viability (%) of E-11 cells, mean (E-11 cells; peptide 0.00411 mg/mL) | Viability (%) of E-11 cells, mean (E-11 cells; peptide 0.01234 mg/mL) | Viability (%) of E-11 cells, mean (E-11 cells; peptide 0.03704 mg/mL) | Viability (%) of E-11 cells, mean (E-11 cells; peptide 0.11111 mg/mL) | Viability (%) of E-11 cells, mean (E-11 cells; peptide 0.33333 mg/mL) | Viability (%) of E-11 cells, mean (E-11 cells; peptide 1.00000 mg/mL) | Clinical signs of VER disease, severity score (RGNNV; four-rank scale 1-4, sea bass, RGNNV bath challenge, 1 µg peptide/g i.m., Fig. 4B) | Relative percent survival (RPS) (RGNNV; juvenile sea bass, bath infection 3.16 × 10^4 TCID₅₀ RGNNV/mL for 2 h, then intramuscular injection 1 µg peptide/g, 23 dpi, infected PBS group 63.6% survival) | RGNNV rdrp gene expression in the brain (RGNNV; qPCR relative to ef1a, 2 dpi, n = 6, 1 µg peptide/g i.m. after RGNNV bath challenge, Fig. 5B) |
| --- | --- | --- | --- | --- | --- | --- | --- | --- | --- | --- |
| SVRLSVPSLETPEETTA-NH2 [Peptide P7] | 90% | 149.6% | 125.7% | 138.9% | 116.6% | 119.8% | 131.6% | ≤ 4 | 68.8% | effectively blocked |
| ALQATRGAVVAKWW-NH2 [Peptide P5] | – | 126.6% | 116.7% | 116.4% | 122.7% | 104.3% | 115.8% | – | – | – |
| LLWTSSGKEQR-NH2 [Peptide P6] | 90% | 157.5% | 139.2% | 138.9% | 152.9% | 146.5% | 128.1% | – | – | – |
